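Briefly, cells in 96-well plates were exposed to five compound concentrations for 48 h, and endpoints were estimated by linear interpolation. Abbreviation: GI50, concentration required for 50% inhibition of growth.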 The source made the active and inactive calls. Cut-off read from the data, not from the text of the source: active = GI50 up to about 1.1 µM and inactive = higher.
What was measured:
Test in all cases: inhibition of tumour cell growth, NCI panel, 48 h
A498 = system: A498
A549 = system: A549
HCC 2998 = system: HCC 2998
IGROV-1 = system: IGROV-1
LOX IMVI = system: LOX IMVI
MDA-MB-231 = system: MDA-MB-231
MDA-N = system: MDA-N
Malme-3M = system: Malme-3M
NCI-H460 = system: NCI-H460
NCI/ADR-RES = system: NCI/ADR-RES
OVCAR-5 = system: OVCAR-5
OVCAR-8 = system: OVCAR-8
RPMI-8226 = system: RPMI-8226
SF-295 = system: SF-295
SNB-19 = system: SNB-19
SR = system: SR
U-251 = system: U-251
UACC-257 = system: UACC-257
UACC-62 = system: UACC-62
NCI-H522 = system: NCI-H522

Measured: GI50

CC1CN=C(N(Cc2ccc(F)cc2)C(=O)Nc2ccc(Cl)cc2)S1 (configuration not stated)
inactive: A498 18.9 µM | A549 21.4 µM | HCC 2998 23.2 µM | IGROV-1 18.9 µM | LOX IMVI 16.1 µM | MDA-MB-231 32.3 µM | MDA-N 11.7 µM | Malme-3M 34.8 µM | NCI-H460 18.7 µM | NCI/ADR-RES 12.5 µM | OVCAR-5 > 100 µM | OVCAR-8 30.1 µM | RPMI-8226 43.4 µM | SF-295 27.7 µM | SNB-19 95.1 µM | SR 26.5 µM | U-251 32.4 µM | UACC-257 45.9 µM

Oc1ccc(/C=C/c2cc(O)cc(O)c2)cc1 [RESVERATROL]
inactive: A498 24.3 µM | A549 51.6 µM | HCC 2998 62.4 µM | MDA-MB-231 > 100 µM | MDA-N 50.7 µM | NCI-H460 42.1 µM | NCI/ADR-RES 19.6 µM | OVCAR-5 > 100 µM | OVCAR-8 48.8 µM | RPMI-8226 8.63 µM | SF-295 44 µM | SNB-19 > 100 µM | SR 53.1 µM | U-251 > 100 µM | UACC-257 > 100 µM | UACC-62 41.2 µM

COC(=O)C1CC(C=[N+](C)C)=C(SC)N1 (configuration not stated)
inactive: A498 > 100 µM | HCC 2998 > 100 µM | IGROV-1 > 100 µM | MDA-MB-231 > 100 µM | MDA-N > 100 µM | Malme-3M > 100 µM | NCI-H460 98.2 µM | NCI-H522 > 100 µM | NCI/ADR-RES > 100 µM | OVCAR-5 > 100 µM | OVCAR-8 > 100 µM | RPMI-8226 > 100 µM | SF-295 > 100 µM | SNB-19 > 100 µM | SR > 100 µM | U-251 > 100 µM | UACC-257 > 100 µM | UACC-62 > 100 µM

NC(Cc1ccccc1)C(=O)N[C@H]1c2ccsc2/C(=N/O)[C@H]1O (some centres not stated)
inactive: A498 > 100 µM | A549 > 100 µM | HCC 2998 > 100 µM | IGROV-1 > 100 µM | LOX IMVI > 100 µM | MDA-MB-231 > 100 µM | MDA-N > 100 µM | Malme-3M > 100 µM | NCI-H460 > 100 µM | NCI/ADR-RES > 100 µM | OVCAR-5 > 100 µM | OVCAR-8 > 100 µM | SF-295 > 100 µM | SR > 100 µM | U-251 > 100 µM | UACC-257 > 100 µM | UACC-62 > 100 µM

O=c1[nH]c(=O)n(C2OC(CO)C(O)C2O)cc1OCCCc1ccccc1 (configuration not stated)
inactive: A498 > 100 µM | A549 > 100 µM | HCC 2998 > 100 µM | IGROV-1 > 100 µM | LOX IMVI > 100 µM | MDA-MB-231 > 100 µM | MDA-N > 100 µM | Malme-3M > 100 µM | NCI-H460 > 100 µM | NCI/ADR-RES > 100 µM | OVCAR-5 > 100 µM | OVCAR-8 > 100 µM | SF-295 > 100 µM | SNB-19 > 100 µM | SR > 100 µM | UACC-257 > 100 µM | UACC-62 > 100 µM

CC1(C)CCCC(C)(C2CCC3(C)C2C(O)CC2C4(C)CCC(O)C(C)(C)C4CCC23C)O1 (configuration not stated)
inactive: A498 > 100 µM | A549 > 100 µM | HCC 2998 > 100 µM | IGROV-1 > 100 µM | LOX IMVI > 100 µM | MDA-MB-231 34.5 µM | MDA-N > 100 µM | Malme-3M 98.6 µM | NCI-H460 56.6 µM | NCI-H522 75.5 µM | NCI/ADR-RES 55 µM | OVCAR-5 > 100 µM | OVCAR-8 42.4 µM | SF-295 52.1 µM | SNB-19 42.6 µM | SR > 100 µM | U-251 > 100 µM | UACC-257 > 100 µM | UACC-62 > 100 µM

O=P(Oc1ccc(Cl)cc1)(Oc1ccc(Cl)cc1)N1CC1
inactive: A498 > 10 µM | A549 > 10 µM | HCC 2998 > 10 µM | LOX IMVI > 10 µM | MDA-MB-231 > 10 µM | MDA-N > 10 µM | Malme-3M > 10 µM | NCI-H460 > 10 µM | NCI/ADR-RES > 10 µM | OVCAR-5 > 10 µM | OVCAR-8 > 10 µM | RPMI-8226 > 10 µM | SF-295 > 10 µM | SNB-19 > 10 µM | SR > 10 µM | U-251 > 10 µM | UACC-257 4.38 µM | UACC-62 > 10 µM

Nc1nc(-c2ccccc2)nc2oc(-c3cccs3)nc12
inactive: A498 > 100 µM | A549 > 100 µM | HCC 2998 > 100 µM | IGROV-1 > 100 µM | LOX IMVI > 100 µM | MDA-MB-231 > 100 µM | MDA-N > 10 µM | NCI-H460 > 100 µM | NCI-H522 > 100 µM | NCI/ADR-RES > 100 µM | OVCAR-5 > 100 µM | OVCAR-8 > 100 µM | RPMI-8226 > 100 µM | SF-295 > 100 µM | SNB-19 > 100 µM | SR > 100 µM | U-251 > 100 µM | UACC-257 > 100 µM | UACC-62 > 100 µM

Oc1ccc(/C=C/c2cccc(/C=C/c3ccc(O)c(O)c3)n2)cc1O
inactive: A498 12.9 µM | A549 5.25 µM | HCC 2998 16.5 µM | IGROV-1 6.15 µM | LOX IMVI 5.14 µM | MDA-MB-231 25.5 µM | MDA-N 7.53 µM | NCI-H460 5.57 µM | NCI/ADR-RES 5.48 µM | OVCAR-5 9.95 µM | OVCAR-8 6.81 µM | RPMI-8226 3.76 µM | SF-295 18.6 µM | SNB-19 6.04 µM | SR 3.49 µM | U-251 3.85 µM | UACC-257 13.9 µM | UACC-62 6.12 µM

COc1ccc(C(=O)NCCC2CN(S(=O)(=O)C(F)(F)F)c3ccccc32)c(OC)c1 (configuration not stated)
inactive: A498 > 100 µM | A549 52.1 µM | HCC 2998 60.4 µM | IGROV-1 61.4 µM | MDA-MB-231 > 100 µM | MDA-N 33.2 µM | Malme-3M 7.06 µM | NCI-H460 33.6 µM | NCI-H522 19.3 µM | NCI/ADR-RES 23.1 µM | OVCAR-5 > 100 µM | RPMI-8226 26.8 µM | SF-295 68.9 µM | SNB-19 54.5 µM | SR > 100 µM | U-251 30.3 µM | UACC-257 40.8 µM | UACC-62 26.9 µM

Cc1ccc(S(=O)(=O)NCCCSCCSCCCN)cc1
inactive: A498 > 100 µM | A549 > 100 µM | HCC 2998 > 100 µM | LOX IMVI > 100 µM | MDA-MB-231 > 100 µM | MDA-N > 100 µM | NCI-H460 > 100 µM | NCI-H522 > 100 µM | NCI/ADR-RES > 100 µM | OVCAR-8 > 100 µM | SF-295 > 100 µM | SNB-19 > 100 µM | SR > 100 µM | U-251 > 100 µM | UACC-257 > 100 µM

COc1ccc(Nc2cc(O)nc(O)n2)cc1
inactive: A498 > 100 µM | A549 > 100 µM | HCC 2998 > 100 µM | IGROV-1 > 100 µM | LOX IMVI > 100 µM | MDA-MB-231 > 100 µM | MDA-N > 100 µM | Malme-3M > 100 µM | NCI-H460 > 100 µM | NCI/ADR-RES > 100 µM | OVCAR-5 > 100 µM | OVCAR-8 > 100 µM | RPMI-8226 > 100 µM | SF-295 > 100 µM | SNB-19 > 100 µM | SR > 100 µM | U-251 > 100 µM | UACC-257 > 100 µM

COC(=O)C(/C(=N\O)C(=O)Nc1cccc(Cl)c1C)c1cnc2ccccc2n1 (configuration not stated)
inactive: A498 > 100 µM | A549 > 100 µM | HCC 2998 > 100 µM | IGROV-1 > 100 µM | LOX IMVI > 100 µM | MDA-MB-231 > 100 µM | MDA-N > 100 µM | Malme-3M > 100 µM | NCI-H460 > 100 µM | NCI-H522 > 100 µM | NCI/ADR-RES > 100 µM | OVCAR-5 > 100 µM | OVCAR-8 > 100 µM | SF-295 > 100 µM | SNB-19 > 100 µM | SR > 100 µM | U-251 > 100 µM | UACC-257 > 100 µM | UACC-62 > 100 µM

C=CCn1c(=O)c(Br)nn(CCOCP(=O)(OCC)OCC)c1=O
inactive: A498 > 100 µM | A549 > 100 µM | HCC 2998 > 100 µM | IGROV-1 > 100 µM | LOX IMVI > 100 µM | MDA-MB-231 > 100 µM | MDA-N > 100 µM | Malme-3M > 100 µM | NCI-H460 > 100 µM | NCI-H522 > 100 µM | NCI/ADR-RES > 100 µM | OVCAR-5 > 100 µM | OVCAR-8 > 100 µM | RPMI-8226 > 100 µM | SNB-19 > 100 µM | SR > 100 µM | U-251 > 100 µM | UACC-257 > 100 µM

CC(C)N(Cc1ccccc1)S(=O)(=O)c1nc(C(C)(C)C)n[nH]1
inactive: A498 > 100 µM | A549 > 100 µM | IGROV-1 > 100 µM | LOX IMVI > 100 µM | MDA-MB-231 > 100 µM | MDA-N > 100 µM | Malme-3M > 100 µM | NCI-H460 > 100 µM | NCI-H522 > 100 µM | NCI/ADR-RES > 100 µM | OVCAR-5 > 100 µM | OVCAR-8 > 100 µM | RPMI-8226 > 100 µM | SF-295 > 100 µM | SNB-19 > 100 µM | SR > 100 µM | U-251 > 100 µM | UACC-257 44.9 µM | UACC-62 > 100 µM
